Numbers after ± are expanded uncertainties.
Assay: refractive index (other wavelength) (dimensionless); xn = mol fraction of the nth substance listed
Conditions: 94 kPa, Liquid, Wavelength=632.8 nm, minimum deviation method

CCCCCCCC[n+]1ccn(C)c1.F[P-](F)(F)(F)(F)F [1-octyl-3-methylimidazolium hexafluorophosphate] + CC(C)O
Conditions | refractive index
298.19 K, x1 = 1 | 1.4215 ± 0.0003
300.2 K, x1 = 1 | 1.421 ± 0.0003
302.19 K, x1 = 1 | 1.4204 ± 0.0003
304.2 K, x1 = 1 | 1.4199 ± 0.0003
306.22 K, x1 = 1 | 1.4193 ± 0.0003
307.22 K, x1 = 0.5 | 1.4091 ± 0.0003
307.22 K, x1 = 0.8 | 1.4159 ± 0.0003
307.28 K, x1 = 0.901 | 1.4177 ± 0.0003
307.29 K, x1 = 0.601 | 1.4119 ± 0.0003
307.3 K, x1 = 0.4 | 1.4056 ± 0.0003
307.3 K, x1 = 0.699 | 1.4141 ± 0.0003
307.41 K, x1 = 0.3 | 1.4009 ± 0.0003
308.19 K, x1 = 0.699 | 1.4138 ± 0.0003
308.21 K, x1 = 0.5 | 1.4088 ± 0.0003
308.21 K, x1 = 0.601 | 1.4116 ± 0.0003
308.23 K, x1 = 0.901 | 1.4174 ± 0.0003
308.24 K, x1 = 1 | 1.4188 ± 0.0003
308.25 K, x1 = 0.8 | 1.4156 ± 0.0003
308.29 K, x1 = 0.4 | 1.4053 ± 0.0003
308.4 K, x1 = 0.3 | 1.4006 ± 0.0003
309.22 K, x1 = 0.5 | 1.4085 ± 0.0003
309.24 K, x1 = 0.601 | 1.4113 ± 0.0003
309.24 K, x1 = 0.8 | 1.4154 ± 0.0003
309.25 K, x1 = 0.901 | 1.4171 ± 0.0003
309.27 K, x1 = 0.699 | 1.4135 ± 0.0003
309.35 K, x1 = 0.4 | 1.405 ± 0.0003
309.39 K, x1 = 0.3 | 1.4003 ± 0.0003
309.47 K, x1 = 0.2 | 1.3938 ± 0.0003
310.24 K, x1 = 0.601 | 1.411 ± 0.0003
310.25 K, x1 = 0.5 | 1.4082 ± 0.0003
310.25 K, x1 = 0.8 | 1.4151 ± 0.0003
310.25 K, x1 = 1 | 1.4183 ± 0.0003
310.31 K, x1 = 0.699 | 1.4132 ± 0.0003
310.34 K, x1 = 0.901 | 1.4168 ± 0.0003
310.36 K, x1 = 0.4 | 1.4047 ± 0.0003
310.42 K, x1 = 0.3 | 1.3999 ± 0.0003
310.45 K, x1 = 0.2 | 1.3934 ± 0.0003
310.49 K, x1 = 0.1 | 1.3838 ± 0.0003
311.23 K, x1 = 0.601 | 1.4107 ± 0.0003
311.24 K, x1 = 0.5 | 1.4079 ± 0.0003
311.25 K, x1 = 0.699 | 1.413 ± 0.0003
311.25 K, x1 = 0.901 | 1.4166 ± 0.0003
311.26 K, x1 = 0.8 | 1.4148 ± 0.0003
311.36 K, x1 = 0.4 | 1.4044 ± 0.0003
311.46 K, x1 = 0.3 | 1.3996 ± 0.0003
311.48 K, x1 = 0.2 | 1.3931 ± 0.0003
311.5 K, x1 = 0.1 | 1.3834 ± 0.0003
312.22 K, x1 = 0.8 | 1.4146 ± 0.0003
312.24 K, x1 = 0.601 | 1.4104 ± 0.0003
312.24 K, x1 = 1 | 1.4178 ± 0.0003
312.25 K, x1 = 0.5 | 1.4076 ± 0.0003
312.26 K, x1 = 0.699 | 1.4127 ± 0.0003
312.35 K, x1 = 0.901 | 1.4163 ± 0.0003
312.37 K, x1 = 0.4 | 1.4041 ± 0.0003
312.4 K, x1 = 0.3 | 1.3993 ± 0.0003
312.47 K, x1 = 0.2 | 1.3927 ± 0.0003
312.49 K, x1 = 0.1 | 1.383 ± 0.0003
313.21 K, x1 = 0.601 | 1.4101 ± 0.0003
313.25 K, x1 = 0.8 | 1.4143 ± 0.0003
313.26 K, x1 = 0.5 | 1.4073 ± 0.0003
313.26 K, x1 = 0.901 | 1.416 ± 0.0003
313.35 K, x1 = 0.4 | 1.4038 ± 0.0003
313.37 K, x1 = 0.699 | 1.4124 ± 0.0003
313.43 K, x1 = 0.3 | 1.399 ± 0.0003
313.49 K, x1 = 0.2 | 1.3924 ± 0.0003
313.52 K, x1 = 0.1 | 1.3826 ± 0.0003
314.23 K, x1 = 0.601 | 1.4098 ± 0.0003
314.23 K, x1 = 0.699 | 1.4121 ± 0.0003
314.27 K, x1 = 0.5 | 1.407 ± 0.0003
314.29 K, x1 = 0.8 | 1.414 ± 0.0003
314.29 K, x1 = 0.901 | 1.4157 ± 0.0003
314.39 K, x1 = 0.4 | 1.4035 ± 0.0003
314.46 K, x1 = 0.3 | 1.3986 ± 0.0003
314.48 K, x1 = 0.2 | 1.392 ± 0.0003
314.54 K, x1 = 0.1 | 1.3822 ± 0.0003
315.58 K, x1 = 0.1 | 1.3818 ± 0.0003
315.58 K, x1 = 0.2 | 1.3916 ± 0.0003
